In US8288375B2, “Fungicidal bicyclic pyrazoles” (E.I. du Pont de Nemours and Company, priority 2007, dated 2012):

Assays:
Format in all cases: in vivo
[1] = tested on: Septoria nodorum; assay: Test D: wheat glume blotch, test suspension sprayed on wheat seedlings, disease rating; details: 200 ppm test suspension
[2] = tested on: Phytophthora infestans; assay: whole plant or invertebrate; details: 200 ppm test suspension
[3] = tested on: Pythium aphanidermatum; assay: Test L: bluegrass pythium blight, test suspension sprayed on bluegrass seedlings, disease rating; details: 200 ppm test suspension;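 also: 200 ppm unless marked * meaning 40 ppm or ** meaning 10 ppm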
[4] = tested on: Puccinia recondite f sp. tritici; assay: Test B: wheat leaf rust, test suspension sprayed on wheat seedlings, disease rating; details: 200 ppm test suspension;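 also: 200 ppm unless marked * meaning 40 ppm or ** meaning 10 ppm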
[5] = tested on: Fusarium graminearum; assay: whole plant or invertebrate; details: 200 ppm test suspension
[6] = tested on: Erysiphe graminis f. sp. tritici; assay: Test A: wheat powdery mildew, test suspension sprayed on wheat seedlings, disease rating; details: 200 ppm test suspension; 100 = 100% disease control, 0 = no control
[7] = tested on: Septoria tritici; assay: Test E: wheat leaf blotch, test suspension sprayed on wheat seedlings, disease rating; details: 200 ppm test suspension;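 also: 200 ppm unless marked * meaning 40 ppm or ** meaning 10 ppm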
[8] = tested on: Botrytis cinerea; assay: Test H: tomato Botrytis, test suspension sprayed on tomato seedlings, disease rating; details: 200 ppm test suspension
[9] = tested on: Alternaria solani; assay: Test G: tomato early blight, test suspension sprayed on seedlings, disease rating; details: 200 ppm test suspension;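 also: 200 ppm unless marked * meaning 40 ppm or ** meaning 10 ppm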
[10] = tested on: Rhizoctonia oryzae; assay: Test I: turf brown patch, test suspension sprayed on creeping bent grass seedlings, disease rating; details: 200 ppm test suspension

Row | SMILES | Test D disease control rating [1] [%] | Test J disease control rating [2] [%] | Test L disease control rating [3] [%] | Test B disease control rating [4] [%] | Test C disease control rating [5] [%] | Test A disease control rating [6] [%] | Test E disease control rating [7] [%] | Test H disease control rating [8] [%] | Test G disease control rating [9] [%] | Test I disease control rating [10] [%]
1 | C[C@H](CO)Nc1nccc(-c2c(-c3ccc(F)cc3)nn3c2CCOC3)n1 [compound 113] | 78 | 96 | 100 | 97 | 99 | 0 | 91 | – | – | –
2 | CC(C)Nc1nccc(-c2c(-c3ccsc3)nn3c2COCC3)n1 [compound 118] | 78 | 80 | 99 | 86 | 98 | 0 | 82 | – | – | –
3 | Cc1cc(-c2nn3c(c2-c2ccnc(NC4CC4)n2)COCC3)ccc1F [compound 119] | 99 | 93 | 92 | 76 | 100 | 61 | 87 | – | – | –
4 | Cc1cc(-c2nn3c(c2-c2ccnc(NC(C)C)n2)COCC3)ccc1F [compound 120] | 100 | 88 | 98 | 90 | 100 | 86 | 95 | – | – | –
5 | CC(CO)Nc1nccc(-c2c(-c3ccccc3)nn3c2COCC3)n1 (centres unmarked) [compound 122] | 73 | 99 | 100 | 96 | 99 | 0 | 80 | – | – | –
6 | Cc1cc(-c2nn3c(c2-c2ccnc(NC(C)CO)n2)COCC3)ccc1F (centres unmarked) [compound 123] | 0 | 91 | 100 | 90 | 99 | 0 | 31 | – | – | –
7 | CC(CO)Nc1nccc(-c2c(-c3ccsc3)nn3c2COCC3)n1 (centres unmarked) [compound 124] | 60 | 66 | 99 | 86 | 98 | 0 | 54 | – | – | –
8 | CC(C)Nc1nccc(-c2c(-c3ccc(F)cc3F)nn3c2COCC3)n1 [compound 125] | 89 | 100 | 100 | 86 | 100 | 20 | 88 | – | – | –
9 | Fc1ccc(-c2nn3c(c2-c2ccnc(NC4CC4)n2)COCC3)c(F)c1 [compound 126] | 82 | 87 | 99 | 86 | 99 | 0 | 70 | – | – | –
10 | CC(CO)Nc1nccc(-c2c(-c3ccc(F)cc3F)nn3c2COCC3)n1 (centres unmarked) [compound 127] | 60 | 100 | 99 | 97 | 96 | 0 | 86 | – | – | –
11 | CC(CO)Nc1nccc(-c2c(-c3ccc(F)cc3)nn3c2Cc2ccccc2C3)n1 (centres unmarked) [compound 140] | 0 | 26 | 99 | 90 | 98 | 0 | 49 | – | – | –
12 | CNc1nccc(-c2c(-c3ccccc3)nn3c2CCCC3)n1 [compound 142] | 98 | – | – | 100 | 97 | 95 | 100 | 53 | 0 | –
13 | CCNc1nccc(-c2c(-c3ccccc3)nn3c2CCCC3)n1 [compound 143] | 100 | – | – | 100 | 99 | 96 | 100 | – | – | 86
14 | CCCNc1nccc(-c2c(-c3ccccc3)nn3c2CCCC3)n1 [compound 179] | 99 | – | – | 100 | 100 | 75 | 100 | – | – | 89
15 | c1cc(-c2c(-c3ccsc3)nn3c2CCCC3)nc(NC2CC2)n1 [compound 180] | 98 | – | – | 99 | 96 | 79 | 100 | 96 | – | –
16 | Cc1cccc(-c2nn3c(c2-c2ccnc(NC4CC4)n2)CCCC3)c1 [compound 181] | 100 | – | – | 100 | 100 | 97 | 100 | 94 | 99 | –
17 | COc1cc(Nc2nccc(-c3c(-c4ccccc4)nn4c3CCCC4)n2)ccc1F [compound 182] | 97 | – | – | 77 | – | 92 | 100 | 81 | – | –
18 | CCNc1nccc(-c2c(-c3ccccc3)nn3c2COCC3)n1 [compound 183] | 97 | – | – | 100 | 99 | – | 100 | 81 | – | –
19 | CCCNc1nccc(-c2c(-c3ccccc3)nn3c2COCC3)n1 [compound 184] | 90 | – | – | 99 | 99 | 61 | 100 | 80 | 98 | –
20 | CCCNc1nccc(-c2c(-c3cccc(C)c3)nn3c2CCCC3)n1 [compound 185] | 99 | – | – | 97 | – | 74 | 97 | 99 | 95 | –
21 | CCNc1nccc(-c2c(-c3cccc(C)c3)nn3c2CCCC3)n1 [compound 186] | 99 | – | – | 99 | – | 79 | 95 | 99 | 99 | –
22 | CNc1nccc(-c2c(-c3cccc(C)c3)nn3c2CCCC3)n1 [compound 187] | 92 | – | – | 99 | – | 79 | 99 | 92 | – | –
